In the SangsterLogP compilation one finds logP data, which are given here for 12 compounds.

For orientation: logP means the decadic logarithm of the partition coefficient of the neutral form, usually between octanol and water.

The data set in a line: method code SF-HPLC, from DOI: 10.1021/jm00151a006, PMID: 3510299.
On to `COc1ccc(CN(C)N=O)cc1`, for which the logP came out at 1.62.

For `CN(Cc1ccc([N+](=O)[O-])cc1)N=O`, the logP was 0.82.

Compound `CN(Cc1ccc(C#N)cc1)N=O` returned a logP of 0.99.

Compound `CN(Cc1cccc([N+](=O)[O-])c1)N=O` yielded a logP of 1.17.

`CN(Cc1ccccc1)N=O` showed a logP of 1.55.

Take `Cc1ccc(CN(C)N=O)cc1`: the logP amounted to 2.14.

As to `Cc1cccc(CN(C)N=O)c1`, the logP was found to be 1.96.

Compound `CN(Cc1cccc(C(F)(F)F)c1)N=O` showed a logP of 1.99.

As to `CN(Cc1cccc(Cl)c1)N=O`, the logP is 1.46.

`CN(Cc1ccc(F)cc1)N=O` had a logP of 1.67.

On to `COc1cccc(CN(C)N=O)c1`, for which the lipophilicity (logP) came to 1.6.

Take `CN(Cc1ccc(Cl)cc1)N=O`: the logP was found to be 2.19.
